Results on 22 compounds are retold here after ChEMBL document CHEMBL2406976, “Discovery of Inhibitors of Burkholderia pseudomallei Methionine Aminopeptidase with Antibacterial Activity” (ACS Med Chem Lett, 2013).

In brackets after ≈: the same amount, converted by molar mass. Activity calls are given as the source filed them. No cut-off for these calls is given here. Some results are limits rather than exact numbers.

The test system of test [1] is Burkholderia thailandensis. Briefly: Antibacterial activity against Burkholderia thailandensis E264 assessed as bacterial growth inhibition at 1 mM after 24 hrs by two-fold dilution method relative to DMSO-treated control. Type of test: functional. Particulars: for inhibition of growth at 1000 µM: E264, 24 h, read-out: GI.
A short description of test [2]: Inhibition of Burkholderia pseudomallei recombinant methionine aminopeptidase 1 using H-Met-Gly-Pro-7-amino-4-methylcoumarin hydrochloride as substrate measured for 10 mins by fluorescence assay in presence of human recombinant DPP4.
For test [3], the system named is Burkholderia pseudomallei. Briefly: Antibacterial activity against Burkholderia pseudomallei assessed as bacterial growth inhibition. Type of test: functional.
Test [4] concerns the target Methionine aminopeptidase 2 (Homo sapiens, UniProt P50579). Briefly: Inhibition of human methionine aminopeptidase 2.
Test [5] concerns the target Methionine aminopeptidase 1 (Homo sapiens, UniProt P53582). Kind of test: Inhibition of human methionine aminopeptidase 1.
Test [6] concerns Burkholderia pseudomallei. Briefly: Antibacterial activity against Burkholderia pseudomallei 1026b assessed as bacterial growth inhibition after 24 hrs by two-fold dilution method. Type of test: functional, organism-based.
Test [7] deals with Burkholderia pseudomallei. Kind of test: Antibacterial activity against Burkholderia pseudomallei Bp340 assessed as bacterial growth inhibition at 31.25 uM after 24 hrs by two-fold dilution method. Type of test: functional, organism-based.
Test [8] concerns Burkholderia thailandensis. Kind of test: Bactericidal activity against Burkholderia thailandensis E264 assessed as cell death after 24 hrs by two-fold dilution method. Type of test: functional. Particulars: E264, 24 h.
For test [9], the system named is Burkholderia thailandensis. Kind of test: Antibacterial activity against Burkholderia thailandensis E264 assessed as bacterial growth inhibition after 24 hrs by two-fold dilution method. Type of test: functional. As to conditions: E264, 24 h.
The test system of test [10] is Burkholderia thailandensis. Kind of test: Antibacterial activity against Burkholderia thailandensis E264 assessed as bacterial growth inhibition at 0.5 mM after 24 hrs by two-fold dilution method relative to control. Type of test: functional.
Test [11] concerns Burkholderia thailandensis. Kind of test: Bactericidal activity against Burkholderia thailandensis E264 assessed as cell death at 1 mM after 24 hrs by two-fold dilution method. Type of test: functional.

Sequence of Methionine aminopeptidase 2 (P50579 whole entry): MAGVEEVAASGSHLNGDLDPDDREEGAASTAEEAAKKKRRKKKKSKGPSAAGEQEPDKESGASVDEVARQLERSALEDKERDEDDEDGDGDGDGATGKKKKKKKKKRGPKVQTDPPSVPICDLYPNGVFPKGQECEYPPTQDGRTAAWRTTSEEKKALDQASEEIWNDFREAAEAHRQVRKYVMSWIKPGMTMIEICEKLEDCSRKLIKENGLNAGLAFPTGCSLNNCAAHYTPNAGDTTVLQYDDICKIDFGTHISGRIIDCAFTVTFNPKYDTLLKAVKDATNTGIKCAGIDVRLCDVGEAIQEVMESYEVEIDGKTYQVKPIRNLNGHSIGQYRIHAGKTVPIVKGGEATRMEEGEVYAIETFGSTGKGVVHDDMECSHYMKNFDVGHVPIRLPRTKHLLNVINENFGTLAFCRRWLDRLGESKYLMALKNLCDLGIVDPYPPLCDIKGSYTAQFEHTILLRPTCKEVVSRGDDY

Consider `CC(C)c1ccc(CSc2nnc(N)[nH]2)cc1`, for which the inhibition of growth at 1000 µM in [1] is at most 26%. Also, in test [2], the IC50 was above 250 µM.
For the compound `CN1CCN(Cc2cc(Cl)c3cccnc3c2O)CC1`, in test [1], the inhibition of growth at 1000 µM was above 50%.
`CC(C)(O/N=C(\C(=O)N[C@@H]1C(=O)N2C(C(=O)[O-])=C(C[n+]3ccccc3)CS[C@H]12)c1csc(N)n1)C(=O)O` [CEFTAZIDIME]: the MIC in test [3] was 1 µg/mL (≈ 1.83 µM).
Turning to `O=[N+]([O-])c1cc(CN2CCCC2)c(O)c2ncccc12`, the “growth inhibition (GI)” value in test [1] was “Active”. Further, in [2], the half-maximal inhibitory concentration (IC50) is 0.03 µM.
In the case of `Nc1nnc(SCc2ccc(F)c(F)c2)[nH]1`, in test [1], the inhibition of growth at 1000 µM is at most 26%. For the same compound, the IC50 in test [2] is above 250 µM.
In the case of `Nc1nnc(SCc2ccc(Cl)cc2Cl)[nH]1`, in test [1], the inhibition of growth at 1000 µM was at most 26%. Also, the 50% inhibitory concentration (IC50) in test [2] stood at 1 µM.
On to `CC(C)(C)c1ccc(CSc2nnc(N)[nH]2)cc1`, for which, in test [1], the inhibition of growth at 1000 µM is at most 26%. The IC50 in test [2] is above 250 µM.
With `O=S(=O)(O)c1ccc(O)c2ncccc12`, the inhibition of growth at 1000 µM in test [1] was 9%. Besides, in test [4], the IC50 was above 15 µM.
Take `CN(C)Cc1cc([N+](=O)[O-])c2cccnc2c1O`: the “growth inhibition (GI)” value in test [1] is “Active”. Besides, the concentration for half-maximal inhibition (IC50) in test [2] was determined as 0.04 µM.
For the compound `Oc1ccc(Cl)c2cccnc12` [CLOXYQUIN], in [1], the inhibition of growth at 1000 µM was above 50%.
As for `Cc1ccc(CSc2nnc(N)[nH]2)cc1`, in test [1], the inhibition of growth at 1000 µM is at most 26%. Besides, in [2], the half-maximal inhibitory concentration (IC50) came out at 3.1 µM.
As for `Oc1c(CN2CCOCC2)cc(Cl)c2cccnc12`, in test [1], the inhibition of growth at 1000 µM is above 50%.
`Nc1nnc(SCc2ccc(F)cc2)[nH]1`: in test [1], the inhibition of growth at 1000 µM was at most 26%. In addition, the half-maximal inhibitory concentration (IC50) in test [2] stood at 7 µM.
Regarding `Oc1c(CN2CCSCC2)cc(Cl)c2cccnc12`, the inhibition of growth at 1000 µM in test [1] was above 50%.
For `Oc1c(CN2CCCCC2)cc(Cl)c2cccnc12`, in [1], the inhibition of growth at 1000 µM was above 50%. This compound also displayed an IC50 in [5] above 50 µM.
As to `O=[N+]([O-])c1ccc(O)c2ncccc12` [NITROXOLINE], the “growth inhibition (GI)” value in test [6], in [7] and in [1] was “Active” throughout. In addition, in test [8], the MBC is 250 µM (≈ 47.5 µg/mL). The minimal inhibitory concentration (MIC) in test [9] was determined as 31 µM (≈ 5.89 µg/mL).
Regarding `NC[C@H]1O[C@H](O[C@H]2[C@H](O)[C@@H](O[C@H]3O[C@H](CO)[C@@H](O)[C@H](N)[C@H]3O)[C@H](N)C[C@@H]2N)[C@H](O)[C@@H](O)[C@@H]1O`, the inhibition result in test [10] is “Active”.
For `CN1CCN(Cc2cc([N+](=O)[O-])c3cccnc3c2O)CC1`, the “growth inhibition (GI)” value in [11] was “inactive”. Moreover, the “growth inhibition (GI)” value in test [1] is “Active”. Also, the minimal inhibitory concentration (MIC) in test [9] was 500 µM (≈ 151 µg/mL). The IC50 in test [2] came to 0.07 µM.
Take `Oc1cccc2cccnc12` [OXYQUINOLINE]: the inhibition of growth at 1000 µM in [1] was above 50%. Also, the half-inhibitory concentration (IC50) in test [5] was above 15 µM.
For `O=[N+]([O-])c1cc(CN2CCOCC2)c(O)c2ncccc12`, the IC50 in [2] came to 60 µM.
`O=[N+]([O-])c1cc(CN2CCSCC2)c(O)c2ncccc12`: in test [2], the IC50 is above 250 µM.
For the compound `Cc1ccc2cccc(O)c2n1` [8-HYDROXY QUINALDINE], in test [1], the inhibition of growth at 1000 µM is above 50%. The IC50 in test [4] and in test [5] was above 15 µM throughout.
